Like-named read-outs stand apart in the source and are kept apart here.
Experiments:
[1] = test system: mice; assay: Writhing assay (phenylbenzoquinone-induced writhing); format: in vivo, mouse; settings: 30 min before phenylbenzoquinone i.p.; for Writhing Mouse Oral: screening dose 10 mg/kg p.o. (intragastric); for Writhing Mouse Subc.: screening dose 10 mg/kg s.c.
Method: Writhing assay. Male Charles River albino mice (CD-1/HAM/1LR) weighing between 20 and 30 grams were used. Thirty minutes after subcutaneous or intragastric administration of the test compound (0.1 mg/10 gram body weight), 0.025% (w/v) phenylbenzoquinone was injected intraperitoneally (0.1 ml/10 gram body weight). Five minutes later, each mouse was placed in a large glass beaker and the number of writhes that occurred in the subsequent ten minutes is counted. A writhe consisted of dorsoflexion of the back, extension of the hindlimbs, and strong contraction of the abdominal musculature. The test compounds was considered to have produced analgesia in a mouse if the number of writhes elicited by phenylbenzoquinone was equal to or less than one-half the median number of writhes recorded for the saline-treated group that day. The results were expressed as the number of mice (out of a possible ten) in which the test compound produced analgesia.

[2] = molecular target: opiate receptors isolated from rat brain; format: binding; settings: for IC50: read-out: Opiate Binding, IC50
[3] = test system: opiate activity; settings: cited from earlier work
[4] = test system: rat; settings: injected directly into the brain of the rat; cited from earlier work
[5] = 1 nM 3H-Naloxone, rat brain receptor membranes, standard screening dose 10^-5 molar (words such as Inactive refer to it)
[6] = 1 nM 3H-Naloxone, rat brain receptor membranes, standard screening dose 10^-5 molar (words such as Inactive refer to it), monohydrochloride

| Compound | Writhing Mouse Oral [1] | Writhing Mouse Subc. [1] | other results |
| --- | --- | --- | --- |
| 2,6-dimethyl-L-tyrosyl-N-[2-(2-thienyl)ethyl]-D-alaninamide, monohydrochloride [Example 39] | Inactive | Inactive | – |
| 2,6-dimethyltyrosyl-N-(2,3-dihydro-1H-inden-2-yl)-D-alaninamide, monohydrochloride [Example 24] | Inactive | Lethal | IC50 [2, 5]: 860 nM |
| 2,6-dimethyltyrosyl-N-(6-methoxy-6-oxohexyl)-D-alaninamide, monohydrochloride [Example 5] | – | Inactive | IC50 [2, 6]: 10000 nM |
| 2,6-dimethyltyrosyl-N-(6-methoxy-6-oxohexyl)-D-alaninamide, monohydrochloride [Example 7] | Inactive | Inactive | IC50 [2, 6]: 1000 nM |
| 2,6-dimethyltyrosyl-N-[3-(2-thienyl)propyl]-D-alaninamide, monohydrochloride [Example 46] | – | – | IC50 [2, 6]: 220 nM; Writhing Mouse Oral ([1]; monohydrochloride, 10 mg/kg): Inactive; Writhing Mouse Subc. ([1]; monohydrochloride, 10 mg/kg): Inactive |
| 2,6-dimethyltyrosyl-N-[3-(2-thienyl)propyl]-D-alaninamide, monohydrochloride [Example 47] | – | – | IC50 [2, 6]: 2.9 nM; Writhing Mouse Oral ([1]; monohydrochloride, 10 mg/kg): Active; Writhing Mouse Subc. ([1]; monohydrochloride, 10 mg/kg): Active |
| 2,6-dimethyltyrosyl-N-[3-(3-thienyl)-2E-propenyl]-D-alaninamide, monohydrochloride [Example 58] | Inactive | Active | IC50 [2, 5]: 1 nM |
| 2,6-dimetyltyrosyl-N-[3-(2-thienyl)-2E-propenyl]-D-alaninamide, monohydrochloride [Example 52] | Inactive | Active | – |
| 2-(2R-amino-1-oxopropyl)-1,2,3,4-tetrahydroisoquinoline, monohydrochloride [Example 32] | Active | Inactive | Opiate Binding, IC50 [2, 5]: Inactive |
| Cc1cc(O)cc(C)c1CC(NC(=O)OC(C)(C)C)C(=O)N[C@H](C)C(=O)NCCSc1ccccc1 (mixture of isomers) [Example 108, N-[(1,1-dimethylethoxy)carbonyl]-2,6-dimethyl-DL-tyrosyl-N-[2-(phenythio)ethyl]-D-alaninamide] | Inactive | Active | IC50 [2]: 8.2 nM |
| Cc1cc(O)cc(C)c1CC(NC(=O)OC(C)(C)C)C(=O)N[C@H](C)C(=O)NCCOc1ccccc1 (mixture of isomers) [Example 115, N-[(1,1-dimethylethoxy)carbonyl]O2,6-dimethyl-DL-tyrosyl-N-(2-phenoxyethyl)-D-alaninamide] | Active | Active | IC50 [2]: 8.7 nM |
| Cc1cc(O)cc(C)c1C[C@H](N)C(=O)N[C@@H](C)C(=O)N1CCCc2ccccc21.Cl (relative stereo) [Example 29, αS-R*-amino-4-hydroxy-2,6-dimethyl-N-[1S*-methyl-2-oxo-2-(1,2,3,4-tetrahydro-1-quinolinyl)ethyl]benzenepropanamide, monohydrochloride] | Inactive | Inactive | IC50 [2]: 4900 nM |
| Cc1cc(O)cc(C)c1C[C@H](N)C(=O)N[C@H](C)C(=O)N1CCc2ccccc2C1.Cl (single isomer, unassigned) [Example 35, α-amino-4-hydroxy-2,6-dimethyl-N-[1R-methyl-2-oxo-2-(1,2,3,4-tetrahydro-2-isoquinolinyl)ethyl]benzenepropanamide, monohyrochloride] | Active | Active | IC50 [2, 5]: 14 nM |
| C[C@@H](NC(=O)OCc1ccccc1)C(=O)NC1Cc2ccccc2C1 [Example 20, phenylmethyl [2-[(2,3-dihydro-1H-inden-2-yl)amino]-1R-methyl-2-oxoethyl]carbamate] | Inactive | Active | Opiate Binding, IC50 [2, 5]: Inactive |
| C[C@@H](N)C(=O)NC1Cc2ccccc2C1 [Example 21] | Inactive | Active | Opiate Binding, IC50 [2]: Inactive |
| C[C@@H](NC(=O)OCc1ccccc1)C(=O)N1CCCc2ccccc21 [Example 25, phenylmethyl [1R-methyl-2-oxo-2-(1,2,3,4-tetrahydro-1-quinolinyl)ethyl]carbamate] | Inactive | Inactive | IC50 [2, 5]: 80000 nM |
| C[C@@H](N)C(=O)NCCCc1cccs1 [Example 44, 2R-amino-N-[3-(2-thienyl)propyl]propanamide] | Active | Active | Opiate Binding, IC50 [2, 5]: Inactive |
| COc1ccc(CCCNC(=O)[C@@H](C)N)cc1 [Example 60, αR-amino-N-[3-(4-methoxyphenyl)propyl]propanamide] | Active | Active | IC50 [2, 5]: 36000 nM |
| Cc1cc(O)cc(C)c1C[C@H](N)C(=O)N[C@H](C)C(=O)NCCC(c1ccccc1)c1ccccc1.Cl [Example 73, 2,6-dimethyltyrosyl-N-(3,3-diphenylpropyl)-D-alaninamide, monohydrochloride] | Inactive | Active | IC50 [2, 5]: 0.3 nM |
| Cc1cc(O)cc(C)c1C[C@H](N)C(=O)N[C@H](C)C(=O)NCCSc1ccccc1.Cl [Example 109, 2,6-dimethyltyrosyl-N-[2-(2-(phenylthio)ethyl]-D-alaninamide, monohydrochloride] | – | – | IC50 [2]: 0.4 nM |
| Cc1cc(O)cc(C)c1C[C@H](N)C(=O)N[C@H](C)C(=O)NCCSc1ccccc1.Cl [Example 109] | Inactive | Active | – |
| methionine enkephalin | – | – | activity in bioassays for opiate activity [3]: highly active; analgesic activity [4]: only weak, fleeting analgesic activity |
| α-amino-4-hydroxy-2,6-dimethyl-N-[1R-methyl-2-oxo-2-(1,2,3,4-tetrahydro-1-quinolinyl)ethyl]benzenepropanamide, monohydrochloride [Example 30] | Inactive | Inactive | – |
| α-amino-4-hydroxy-2,6-dimethyl-N-[1R-methyl-2-oxo-2-(1,2,3,4-tetrahydro-2-isoquinolinyl)ethyl]benzenepropanamide, monohydrochloride [Example 37] | Inactive | Inactive | IC50 [2, 5]: 1400 nM |
